Source: PubChem BioAssay AID2060885 (Molecular Pharmacology Branch, DTP, NCI, 2025)

System: NCI-H23 complex spheroids with HUVEC/MSC, viability
Test: Anticancer human tumor NCI-H23 cell line growth inhibition [RAS];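 further: spheroids exposed to compound for 7 days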;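 on viability, T/C: 100% = DMSO vehicle control viability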
Conditions: for IC50: curve of first compound; for viability, T/C: stronger effect = lower value
Procedure, shortened: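 Tumour cells grown as complex spheroids with HUVEC endothelial cells and mesenchymal stem cells, treated with RAS pathway inhibitor combinations. Each agent spans half-log steps from near clinical Cmax, or 10 microM where Cmax is unknown.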

[1] = second compound 0.0316 µM, first compound 0.0316 µM
[2] = second compound 0.0316 µM, first compound 0.1 µM
[3] = second compound 0.0316 µM, first compound 0.316 µM
[4] = second compound 0.0316 µM, first compound 1 µM
[5] = second compound 0.0316 µM, first compound 3.16 µM
[6] = second compound 0.0316 µM, first compound 10 µM
[7] = second compound 0.1 µM, first compound 0.0316 µM
[8] = second compound 0.1 µM, first compound 0.1 µM
[9] = second compound 0.1 µM, first compound 0.316 µM
[10] = second compound 0.1 µM, first compound 1 µM
[11] = second compound 0.1 µM, first compound 3.16 µM
[12] = second compound 0.1 µM, first compound 10 µM
[13] = second compound 0.316 µM, first compound 0.0316 µM
[14] = second compound 0.316 µM, first compound 0.1 µM
[15] = second compound 0.316 µM, first compound 0.316 µM
[16] = second compound 0.316 µM, first compound 1 µM
[17] = second compound 0.316 µM, first compound 3.16 µM
[18] = second compound 0.316 µM, first compound 10 µM
[19] = second compound 1 µM, first compound 0.0316 µM
[20] = second compound 1 µM, first compound 0.1 µM
[21] = second compound 1 µM, first compound 0.316 µM
[22] = second compound 1 µM, first compound 1 µM
[23] = second compound 1 µM, first compound 3.16 µM
[24] = second compound 1 µM, first compound 10 µM
[25] = second compound 3.16 µM, first compound 0.0316 µM
[26] = second compound 3.16 µM, first compound 0.1 µM
[27] = second compound 3.16 µM, first compound 0.316 µM
[28] = second compound 3.16 µM, first compound 1 µM
[29] = second compound 3.16 µM, first compound 3.16 µM
[30] = second compound 3.16 µM, first compound 10 µM
[31] = second compound 10 µM, first compound 0.0316 µM
[32] = second compound 10 µM, first compound 0.1 µM
[33] = second compound 10 µM, first compound 0.316 µM
[34] = second compound 10 µM, first compound 1 µM
[35] = second compound 10 µM, first compound 3.16 µM
[36] = second compound 10 µM, first compound 10 µM

CC1(O)CCCC1n1c(=O)c(C(F)F)cc2cnc(NC3CCN(S(C)(=O)=O)CC3)nc21 (stereo not drawn) + C#Cc1c(F)ccc2cc(O)cc(-c3ncc4c(N5CC6CCC(C5)N6)nc(OCC56CCCN5CC(F)C6)nc4c3F)c12
IC50 (second compound 0.0316 µM): 5490 nM | IC50 (second compound 0.1 µM): 5240 nM | IC50 (second compound 0.316 µM): 4830 nM | IC50 (second compound 1 µM): 3910 nM | IC50 (second compound 3.16 µM): < 31.6 nM | IC50 (second compound 10 µM): < 31.6 nM | viability, T/C [1]: 93.3% | viability, T/C [2]: 92.8% | viability, T/C [3]: 75.2% | viability, T/C [4]: 80.1% | viability, T/C [5]: 81.7% | viability, T/C [6]: 15.6% | viability, T/C [7]: 90.2% | viability, T/C [8]: 87.4% | viability, T/C [9]: 58.7% | viability, T/C [10]: 77.3% | viability, T/C [11]: 76.4% | viability, T/C [12]: 16.3% | viability, T/C [13]: 86.5% | viability, T/C [14]: 74.1% | viability, T/C [15]: 58% | viability, T/C [16]: 65% | viability, T/C [17]: 72.2% | viability, T/C [18]: 13.7% | viability, T/C [19]: 62.6% | viability, T/C [20]: 66.1% | viability, T/C [21]: 46.6% | viability, T/C [22]: 52.7% | viability, T/C [23]: 66.3% | viability, T/C [24]: 10.9% | viability, T/C [25]: 48.3% | viability, T/C [26]: 40.2% | viability, T/C [27]: 34.7% | viability, T/C [28]: 40% | viability, T/C [29]: 42% | viability, T/C [30]: 7.05% | viability, T/C [31]: 32.6% | viability, T/C [32]: 28.3% | viability, T/C [33]: 24.9% | viability, T/C [34]: 27.6% | viability, T/C [35]: 29.6% | viability, T/C [36]: 2.78%

CCC(CC)c1cc(NC2CCC(N)C2)n2nccc2n1 (stereo not drawn) + C#Cc1c(F)ccc2cc(O)cc(-c3ncc4c(N5CC6CCC(C5)N6)nc(OCC56CCCN5CC(F)C6)nc4c3F)c12
IC50 (second compound 0.0316 µM): 1800 nM | IC50 (second compound 0.1 µM): 1780 nM | IC50 (second compound 0.316 µM): 1680 nM | IC50 (second compound 1 µM): 1440 nM | IC50 (second compound 3.16 µM): 1110 nM | IC50 (second compound 10 µM): < 31.6 nM | viability, T/C [1]: 102% | viability, T/C [2]: 129% | viability, T/C [3]: 99.8% | viability, T/C [4]: 89.4% | viability, T/C [5]: 12.8% | viability, T/C [6]: 1.4% | viability, T/C [7]: 109% | viability, T/C [8]: 127% | viability, T/C [9]: 104% | viability, T/C [10]: 90.9% | viability, T/C [11]: 9.22% | viability, T/C [12]: 1.06% | viability, T/C [13]: 113% | viability, T/C [14]: 128% | viability, T/C [15]: 98.9% | viability, T/C [16]: 83.1% | viability, T/C [17]: 10.2% | viability, T/C [18]: 1.06% | viability, T/C [19]: 108% | viability, T/C [20]: 121% | viability, T/C [21]: 92% | viability, T/C [22]: 71.6% | viability, T/C [23]: 9.15% | viability, T/C [24]: 0.7% | viability, T/C [25]: 76.2% | viability, T/C [26]: 70.1% | viability, T/C [27]: 57.7% | viability, T/C [28]: 55.3% | viability, T/C [29]: 5.85% | viability, T/C [30]: 0.62% | viability, T/C [31]: 36.7% | viability, T/C [32]: 45.5% | viability, T/C [33]: 41.9% | viability, T/C [34]: 37.9% | viability, T/C [35]: 3.49% | viability, T/C [36]: 1.1%

Cc1nc(N2CCC3(CC2)COC(C)C3N)c(CO)nc1Sc1ccnc(N)c1Cl (stereo not drawn) + C#Cc1c(F)ccc2cc(O)cc(-c3ncc4c(N5CC6CCC(C5)N6)nc(OCC56CCCN5CC(F)C6)nc4c3F)c12
IC50 (second compound 0.0316 µM): > 10000 nM | IC50 (second compound 0.1 µM): 769 nM | IC50 (second compound 0.316 µM): 391 nM | IC50 (second compound 1 µM): 216 nM | IC50 (second compound 3.16 µM): 66.2 nM | IC50 (second compound 10 µM): < 31.6 nM | viability, T/C [1]: 101% | viability, T/C [2]: 110% | viability, T/C [3]: 68.5% | viability, T/C [4]: 62.7% | viability, T/C [5]: 42.8% | viability, T/C [6]: 48.3% | viability, T/C [7]: 115% | viability, T/C [8]: 110% | viability, T/C [9]: 64.8% | viability, T/C [10]: 48.6% | viability, T/C [11]: 44.2% | viability, T/C [12]: 41.5% | viability, T/C [13]: 106% | viability, T/C [14]: 95.2% | viability, T/C [15]: 51.4% | viability, T/C [16]: 45.5% | viability, T/C [17]: 36% | viability, T/C [18]: 39.5% | viability, T/C [19]: 78.7% | viability, T/C [20]: 60.7% | viability, T/C [21]: 45.2% | viability, T/C [22]: 35.3% | viability, T/C [23]: 35.2% | viability, T/C [24]: 32.6% | viability, T/C [25]: 57.8% | viability, T/C [26]: 45.7% | viability, T/C [27]: 35.8% | viability, T/C [28]: 29.6% | viability, T/C [29]: 30.9% | viability, T/C [30]: 26.9% | viability, T/C [31]: 38.1% | viability, T/C [32]: 35.2% | viability, T/C [33]: 31.7% | viability, T/C [34]: 26.1% | viability, T/C [35]: 26.8% | viability, T/C [36]: 18.2%

NC1c2ccccc2OC12CCN(c1cnc3c(N4CCCc5ncccc54)n[nH]c3n1)CC2 (stereo not drawn) + C#Cc1c(F)ccc2cc(O)cc(-c3ncc4c(N5CC6CCC(C5)N6)nc(OCC56CCCN5CC(F)C6)nc4c3F)c12
IC50 (second compound 0.0316 µM): 281 nM | IC50 (second compound 0.1 µM): 268 nM | IC50 (second compound 0.316 µM): 175 nM | IC50 (second compound 1 µM): 57 nM | IC50 (second compound 3.16 µM): < 31.6 nM | IC50 (second compound 10 µM): < 31.6 nM | viability, T/C [1]: 69.3% | viability, T/C [2]: 76.8% | viability, T/C [3]: 47.3% | viability, T/C [4]: 41.6% | viability, T/C [5]: 35.7% | viability, T/C [6]: 34% | viability, T/C [7]: 74.9% | viability, T/C [8]: 65% | viability, T/C [9]: 45.8% | viability, T/C [10]: 38.6% | viability, T/C [11]: 33.9% | viability, T/C [12]: 30.1% | viability, T/C [13]: 76.3% | viability, T/C [14]: 56.4% | viability, T/C [15]: 40.3% | viability, T/C [16]: 36.4% | viability, T/C [17]: 31.4% | viability, T/C [18]: 22.3% | viability, T/C [19]: 58.4% | viability, T/C [20]: 40.6% | viability, T/C [21]: 32.8% | viability, T/C [22]: 32.4% | viability, T/C [23]: 21.7% | viability, T/C [24]: 19.6% | viability, T/C [25]: 38.5% | viability, T/C [26]: 38.6% | viability, T/C [27]: 31.5% | viability, T/C [28]: 25.2% | viability, T/C [29]: 21% | viability, T/C [30]: 15.5% | viability, T/C [31]: 28.4% | viability, T/C [32]: 30.7% | viability, T/C [33]: 19% | viability, T/C [34]: 16.2% | viability, T/C [35]: 15.5% | viability, T/C [36]: 12.6%
